The values below come from patent US20220274979A1 (Bayer Pharma Aktiengesellschaft, priority 2018, published 2022).

This assay deals with T1, hSOS1 (hSOS1-mediated nucleotide exchange of hK-RasG12C) (Homo sapiens, UniProt Q07889).
T1 construct: hSOS1 (amino acid 564-1049); made in house; host or cells: E. coli BL21 (DE3)
T1 sequence (Q07889 with tags, fused parts or gaps): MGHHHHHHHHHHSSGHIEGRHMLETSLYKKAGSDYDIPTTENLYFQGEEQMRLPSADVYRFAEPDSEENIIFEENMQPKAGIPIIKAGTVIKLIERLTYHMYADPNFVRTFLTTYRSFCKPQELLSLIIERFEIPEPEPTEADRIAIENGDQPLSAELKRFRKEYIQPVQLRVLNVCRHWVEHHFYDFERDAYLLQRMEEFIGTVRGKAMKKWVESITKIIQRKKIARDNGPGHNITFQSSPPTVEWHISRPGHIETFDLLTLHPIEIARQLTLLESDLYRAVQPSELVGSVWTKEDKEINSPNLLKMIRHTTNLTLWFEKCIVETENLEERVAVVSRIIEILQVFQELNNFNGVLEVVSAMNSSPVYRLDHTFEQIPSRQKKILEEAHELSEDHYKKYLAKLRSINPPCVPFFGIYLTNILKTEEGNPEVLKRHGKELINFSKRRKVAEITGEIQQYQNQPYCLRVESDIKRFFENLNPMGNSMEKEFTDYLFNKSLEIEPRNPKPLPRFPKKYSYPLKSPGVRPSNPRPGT
Kind of assay: Biochemical Assay 2: hK-RasG12C activation assay by hSOS1 at high GTP concentration (HTRF nucleotide exchange). The settings on record: high GTP (50 μM GTP). An excerpt: Biochemical Assay 2: hK-RasG12C Activation Assay by hSOS1 at High GTP Concentration
This assay quantifies human SOS1-mediated nucleotide exchange of human K-Ras^G12C (hK-RasG12C) preloaded with a fluorescent […] and in presence of an excess of free GTP. Loaded hK-RasG12C generates a high HTRF-signal by energy transfer from antiGST-Terbium (FRET donor) bound to hK-Ras to the loaded fluorescent GDP analog (FRET-acceptor). hSOS1 activity exchanges the fluorescent GDP for non-fluorescent GTP and therefore leads to a reduction of the HTRF signal.
The fluorescent GDP-analog EDA-GDP-Dy647P1 (2′/3′-O-(2-Aminoethyl-carbamoyl)-guanosine-5′-diphosphate labelled with Dy647P1 (Dyomics GmbH, Germany)) was synthesized by Jena Biosciences GmbH (Germany) and supplied as a 1 mM aqueous solution.
Concentrations of protein batches used were optimized to be within the linear range of the HTRF signal.
Addition of 20 μl 1 M MgCl2 (Sigma) to final 40 mM and store on ice. Purification into buffer (10 mM HEPES pH 7.4 (Applichem), 150 mM NaCl (Sigma), 5 mM MgCl2 (Sigma)) by use of a PD-Minitrap desalting column (GE Healthcare). Concentration of 1 ml purified hK-Ras-GDP-Dy647 is approx. 4-5 μM.
The assay buffer contained 10 mM HEPES pH 7.4 (Applichem), 150 mM NaCl (Sigma), 5 mM MgCl2 (Sigma), 1 mM DTT (Thermofisher), 0.05% BSA Fraction V, pH 7.0, (ICN Biomedicals), 0.0025% (v/v) Igepal (Sigma).
A Ras working solution was prepared in assay buffer containing typically 80 nM loaded GST-hK-RasG12C-EDA-GDP-Dy647P1 and 2 nM antiGST-Tb (Cisbio, France).
Alternatively, the inhibitor control solution was prepared by supplementing the hSOS1 working solution with 20 μM of 6,7-dimethoxy-N-[(1R)-1-(1-naphthyl)ethyl]quinazolin-4-amine which was used to calibrate the assay.
Fifty nl of a 100-fold concentrated solution of the test compound in DMSO were transferred into a black microtiter test plate (384 or 1536, Greiner Bio-One, Germany) For this, either a Hummingbird liquid handler (Digilab, Mass., USA) or an Echo acoustic system (Labcyte, Calif., USA) was used.
All steps of the assay were performed at 20° C. A volume of 2.5 μl of the Ras working solution was added to all wells of the test plate using a Multidrop dispenser (Thermo Labsystems). After 2 min. preincubation, 2.5 μl of the hSOS1 working solution were added to all wells except for those wells at the side of the test plate that were subsequently filled with 2.5 μl of the inhibitor control solution. After 20 min. incubation the fluorescence was measured with a Pherastar (BMG, Germany) using the HTRF module (excitation 337 nm, emission 1:620 nm, emission 2:665 nm).
IC50 values were calculated by 4-Parameter fitting using a commercial software package (Genedata Screener, Switzerland).
For orientation: IC50 means the midpoint of a concentration-inhibition curve. A lower IC50 goes with greater potency in that assay. `CC(=O)NC1CCN(c2cc3c(N[C@H](C)c4cccc(Br)c4)nc(C)nc3cn2)C1` (mixture of isomers) [Example 42, N-[1-(4-{[(1R)-1-(3-bromophenyl)ethyl]amino}-2-methylpyrido[3,4-d]pyrimidin-6-yl)pyrrolidin-3-yl]acetamide] had an IC50 of 215 nM.
To `Cc1nc(NC(C)c2ccc(-c3ccccc3CN(C)C)s2)c2cc(C3CCN(C)C3=O)ncc2n1` (mixture of isomers) [Example 69, 3-(4-{[1-(5-{2-[(dimethylamino)methyl]phenyl}thiophen-2-yl)ethyl]amino}-2-methylpyrido[3,4-d]pyrimidin-6-yl)-1-methylpyrrolidin-2-one] belongs 98.3 nM; to `Cc1nc(NC(C)c2ccc(-c3ccccc3CN(C)C)s2)c2cc(C3(O)CCN(C)C3=O)ncc2n1` (mixture of isomers) [Example 85, 3-(4-{[1-(5-{2-[(dimethylamino)methyl]phenyl}thiophen-2-yl)ethyl]amino}-2-methylpyrido[3,4-d]pyrimidin-6-yl)-3-hydroxy-1-methylpyrrolidin-2-one], 214 nM.
To `CCOc1cc2c(NC(C)c3cccc4sccc34)nc(C)nc2cn1` (stereo not drawn) [Example 3, N-[1-(1-benzothiophen-4-yl)ethyl]-6-ethoxy-2-methylpyrido[3,4-d]pyrimidin-4-amine] belongs 262 nM; to `COc1cc2c(NC(C)c3cccc4sccc34)nc(C)nc2cn1` (stereo not drawn) [Example 4, N-[1-(1-benzothiophen-4-yl)ethyl]-6-methoxy-2-methylpyrido[3,4-d]pyrimidin-4-amine], 423 nM.
To `CCOc1cc2c(N[C@H](C)c3cccc(Br)c3)nc(C)nc2cn1` [Example 5, N-[(1R)-1-(3-bromophenyl)ethyl]-6-ethoxy-2-methylpyrido[3,4-d]pyrimidin-4-amine] belongs 994 nM; to `CCOc1cc2c(N[C@H](C)c3cccc(Cl)c3)nc(C)nc2cn1` [Example 6], 1120 nM; to `CCOc1cc2c(N[C@H](C)c3cccc(S(C)(=O)=O)c3)nc(C)nc2cn1` [Example 7, 6-ethoxy-2-methyl-N-{(1R)-1-[3-(methylsulfonyl)phenyl]ethyl}pyrido[3,4-d]pyrimidin-4-amine], 1300 nM.
`COc1cc2c(N[C@H](C)c3ccc(F)c(Cl)c3)nc(C)nc2cn1` [Example 8] came in with an IC50 of 4890 nM.
For the compound `Cc1nc(N[C@H](C)c2ccc(F)cc2)c2cc(F)ncc2n1` [Example 9], the IC50 was found to be 17900 nM.
Next, `Cc1nc(N[C@H](C)c2ccc(F)cc2)c2cc(OCC3CCOCC3)ncc2n1` [Example 11, N-[1R)-1-(4-fluorophenypethyl]-2-methyl-6-(tetrahydro-2H-pyran-4-ylmethoxy)-pyrido[3,4-d]pyrimidin-4-amine]: 1960 nM; `COc1cc2c(N[C@H](C)c3ccc(F)c(C4CC4)c3)nc(C)nc2cn1` [Example 12]: 6450 nM.
To `CCOc1cc2c(N[C@H](C)c3ccc(Br)cc3)nc(C)nc2cn1` [Example 13, N-[(1R)-1-(4-bromophenyl)ethyl]-6-ethoxy-2-methylpyrido[3,4-d]pyrimidin-4-amine] belongs 1780 nM.
Compound `COc1cc2c(NC(C)c3cccc4c3cnn4C)nc(C)nc2cn1` (stereo not drawn) [Example 14, 6-methoxy-2-methyl-N-[1-(1-methyl-1H-indazol-4-yl)ethyl]pyrido[3,4-d]pyrimidin-4-amine] had an IC50 of 1950 nM.
Next, `Cc1nc(N[C@H](C)c2ccc(F)cc2)c2cc(OC(C)C)ncc2n1` [Example 15]: 1900 nM.
Next, `COc1cc2c(NC(C)c3cccc4nn(C)cc34)nc(C)nc2cn1` (stereo not drawn) [Example 17, 6-methoxy-2-methyl-N-[1-(2-methyl-2H-indazol-4-yl)ethyl]pyrido[3,4-d]pyrimidin-4-amine]: 7730 nM; `CCOc1cc2c(N[C@H](C)c3ccc(C#N)cc3)nc(C)nc2cn1` [Example 18, 4-{(1R)-1-[(6-ethoxy-2-methylpyrido[3,4-d]pyrimidin-4-yl)amino]ethyl}benzonitrile]: 1010 nM; `Cc1nc(N[C@H](C)c2cccc(Br)c2)c2nc(OCc3ccccc3)ncc2n1` [Example 20, 6-(benzyloxy)-N-[(1R)-1-(3-bromophenyl)ethyl]-2-methylpyrimido[5,4-d]pyrimidin-4-amine]: above 20000 nM.
To `Cc1nc(N[C@H](C)c2cccc(Br)c2)c2nc(N(C)C)ncc2n1` [Example 21] belongs above 20000 nM; to `Cc1nc(N[C@H](C)c2cccc(Br)c2)c2nc(N3CCOCC3)ncc2n1` [Example 22, N-[(1R)-1-(3-bromophenyl)ethyl]-2-methyl-6-(morpholin-4-yl)pyrimido[5,4-d]pyrimidin-4-amine], 1960 nM; to `CCOc1ncc2nc(C)nc(N[C@H](C)c3cccc(Br)c3)c2n1` [Example 23, N-[(1R)-1-(3-bromophenyl)ethyl]-6-ethoxy-2-methylpyrimido[5,4-d]pyrimidin-4-amine], 4450 nM.
`COc1ncc2nc(C)nc(N[C@H](C)c3cccc(Br)c3)c2n1` [Example 24, N-[(1R)-1-(3-bromophenyl)ethyl]-6-methoxy-2-methylpyrimido[5,4-d]pyrimidin-4-amine] returned an IC50 of 9710 nM.
In turn, `Cc1nc(N[C@H](C)c2cccc(Br)c2)c2nc(Oc3ccccc3)ncc2n1` [Example 25, N-[(1R)-1-(3-bromophenyl)ethyl]-2-methyl-6-phenoxypyrimido[5,4-d]pyrimidin-4-amine] yielded an IC50 above 20000 nM.
`COCCOc1ncc2nc(C)nc(N[C@H](C)c3cccc(Br)c3)c2n1` [Example 26, N-[(1R)-1-(3-bromophenyl)ethyl]-6-(2-methoxyethoxy)-2-methylpyrimido[5,4-d]pyrimidin-4-amine] registered an IC50 of 3040 nM.
Next, `Cc1nc(N[C@H](C)c2cccc(Br)c2)c2nc(N3CCOCC3)ccc2n1` [Example 27, N-[(1R)-1-(3-bromophenyl)ethyl]-2-methyl-6-(morpholin-4-yl)pyrido[3,2-d]pyrimidin-4-amine]: 1840 nM.
In the case of `COc1ccc2nc(C)nc(N[C@H](C)c3cccc(Br)c3)c2n1` [Example 28, N-[(1R)-1-(3-bromophenyl)ethyl]-6-methoxy-2-methylpyrido[3,2-d]pyrimidin-4-amine], the IC50 is above 20000 nM.
Next, `CCOc1ccc2nc(C)nc(N[C@H](C)c3cccc(Br)c3)c2n1` [Example 29, N-[(1R)-1-(3-bromophenyl)ethyl]-6-ethoxy-2-methylpyrido[3,2-d]pyrimidin-4-amine]: above 20000 nM; `COCCOc1ccc2nc(C)nc(N[C@H](C)c3cccc(Br)c3)c2n1` [Example 30, N-[(1R)-1-(3-bromophenyl)ethyl]-6-(2-methoxyethoxy)-2-methylpyrido[3,2-d]pyrimidin-4-amine]: 5740 nM.
To `Cc1nc(N[C@H](C)c2cccc(Br)c2)c2nc(N(C)C)ccc2n1` [Example 31] belongs at least 40000 nM; to `Cc1nc(N[C@H](C)c2cccc(Br)c2)c2nc(Oc3ccccc3)ccc2n1` [Example 32, N-[(1R)-1-(3-bromophenyl)ethyl]-2-methyl-6-phenoxypyrido[3,2-d]pyrimidin-4-amine], above 20000 nM.
